Experimental data published in PMC6567565, “Modulation of neurological pathways by Salvia officinalis and its dependence on manufacturing process and plant parts used” (BMC Complementary and Alternative Medicine, 2019).
Counter-ions that a name gives are not always drawn.

Key:
[1] = target: human serotonin transporters; parameters: method as in ref 33 (Tatsumi et al.); conditions: [3H]-imipramine binding; ref 33 (Tatsumi et al.); cited from earlier work
[2] = target: human serotonin 5-HT2C(e) receptors; test: serotonin 5-HT2C(e) receptor binding assay ([3H]-mesulergine); conditions: reference compound
Method: (§1) The serotonin 5-HT2C(e) receptor binding assay was performed according to the data sheet provided by the supplier of the receptor preparation, with modifications. The receptor preparation was incubated for 120 min at 37 °C in 50 mM Tris-HCl (pH 7.4), 0.1% ascorbic acid and 10 μM pargyline with 0.5 nM [N^6-methyl-^3H]-mesulergine in the dark.
All assays were terminated by transfer of the samples onto filter plates (PerkinElmer or Whatman), presoaked in assaybuffer (GABAA, GABAB, alpha2A and muscarinic M3), treated with 0.5% BSA (μ-opioid), presoaked with 0.5% polyethyleneimine (5-HT2B, 5-HT2C(e)), or presoaked with 0.1% polyethyleneimine (5-HT1A, 5-HTT). Filters were washed four times with 200 μl of ice-cold 50 mM Tris-HCl pH 7.4 (GABAA, GABAB, Alpha2A, 5-HT1A, 5-HT2B 5-HT2C(e), μ-opioid, and muscarinic M3) or 50 mM Tris-HCl pH 7.4/0.5 M NaCl (5-HTT), and filter-bound radioactivity was determined by a microplate reader (Microbeta, Wallac, Finnland). […]
The IC50 value (concentration causing half-maximal inhibition of specific binding) was determined by non-linear regression analysis of the competition curves using the “sigmoidal dose-response” algorithm (GraphPad Prism, San Diego, USA). […]

[3] = target: serotonin 5-HT2C receptor; test: [3H]-mesulergine binding in native female hypothalami preparation; parameters: species or system human; conditions: reference compound
Method: Human frozen hypothalami were from a healthy person and a healthy person (Tissue Solutions Ltd., Glasgow, UK). The tissue was minced in 20 ml 10 mM HEPES pH 7.4, 1 mM EDTA on ice with a disperger (20 s at 28 Trpm) and centrifuged for 15 min at 31,600×g at 4 °C. The pellet was homogenized (10 strokes with a glass-teflon homogenizer, 2000 rounds per minute) at 4 °C and again centrifuged. The latter procedure was repeated once and the pellet finally resupended in 50 mM HEPES pH 7.4, 4 mM MgCl2, and 1 mM EDTA; frozen in liquid nitrogen; and stored at − 80 °C until usage.
as §1
In membranes from human native female hypothalami, no specific binding of the radioligand for the 5-HT1A, [^3H]-8-OH-DPAT, could be observed, indicating the absence of the serotonin 5-HT1A receptor at least in the investigated preparation.

AChE = tested on: AChE; parameters: method as in ref 31 (Kishibayashi et al.); conditions: ref 31 (Kishibayashi et al.); cited from earlier work
[4] = target: benzodiazepine site of the GABAA receptor; test: GABAA-benzodiazepine site binding assay ([3H]-Ro-15-1788); conditions: reference compound
Method: The GABAA-benzodiazepine site binding assay was performed as described by Mehta and Shank [28], with minor modifications. Membranes were incubated for 30 min at 22 °C in 50 mM Tris-HCl (pH 7.4) and 100 mM NaCl with 1 nM [^3H]-Ro-15-1788. Non-specific binding was determined with 10 μM diazepam.
From every data point non-specific binding was subtracted and data normalized (100% specific binding represents the specific binding of the radioligand to the binding site of the receptor in the absence of any effector).

Compound: CN(C)CCCN1c2ccccc2CCc2ccccc21 [imipramine, Imipramine hydrochloride]
- Kd [1]: 1.4 nM

Compound: O=C1Nc2cc(Cl)c(Cl)cc2N2CCNCC12 (centres unmarked) [WAY 161503, WAY 161503 hydrochloride]
- IC50 [2]: 163 nM
- IC50 [3]: 347 nM

Compound: CN(C)C(=O)Oc1cccc([N+](C)(C)C)c1 [neostigmine]
- IC50 (AChE): 36 nM

Compound: CN1C(=O)CN=C(c2ccccc2)c2cc(Cl)ccc21 [diazepam]
- IC50 [4]: 39 nM
